One assay deals with SW620 cells. In words: SW620 Cell Growth Inhibition Test (SRB Assay). Format: cell-based. Conditions: Homo sapiens, SW-620, 91 h incubation. The protocol:
SW620 Cell Growth Inhibition Test (SRB Assay)
Cell strains: SW620 (human colorectal cancer cell strains);
SRB: available from Sigmaaldrich, goods number: S9012, lot number: 047K3751. […] was reserved at the room temperature. 0.4% (w/v) of working solution was formulated with 1% of glacial acetic acid. The solution was reserved at 4° C.; anti-tumor compounds; DMSO.
Culture medium: 90% L15+10% FBS;
1. A plate (10 cm) of cells in logarithmic growth phase normally cultured was collected. The culture solution was sucked out. The plate was washed wtih 5 mL of PBS 1-2 times;
2. PBS was sucked out. […] of 0.25% pancreatin was added to infiltrate the cells for 30 s;
3. The pancreatin was sucked out. The culture plate was placed in an incubator. Digestion was carried out for about 1.5-2 min at 37° C.;
4. 4 mL of complete culture solution was added to the culture plate to stop the digestion. The cells were carefully scoured with micropipette (1 ml) to give a uniform single cell suspension;
5. Cell suspension was counted. The suspension was diluted to 1.5×10^5/ml. The resulting suspension was developed uniformly on a plate by 15000 cells/100 μl per well. The culture plate was incubated overnight under 5% CO2 at 37° C. In day 2, 100 μl of culture solution comprising a compound was added in each well, and further incubated for 91 h under 5% CO2 at 37° C.;
6. The culture solution was sucked out. 100 uL of TCA fixed cells which were diluted to 10% were added to each well. The plate was kept in a refrigerator for 1 h at 4° C.
7. TCA stationary liquid was sucked out. Each well was washed with 150 μL of ddH2O five times;
8. After the stationary liquid was cleansed, the plate was dried in the air at the room temperature;
9. 60 μL of SRB staining solution was added in each well. The well was stained for 15 min at the room temperature;
10. The SRB staining solution was sucked out. Each well was washed with 150 μL of 1% glacial acetic acid five times;
11. After the SRB staining solution was cleansed, the plate was dried in the air at the room temperature;
12. 100 μL of 10 mM Tris was added in each well, the plate was vibrated to dissolve out SRB;
13. OD values were determined at 570 nM.
To: OD values of the starting content of cells when the cells were developed on a plate;
PC: OD values of cells after normal growth in control wells without a compound;
Ti: OD values of cells after growth in test wells with a compound;
NC: Background OD values of blank wells without a compound and cells
Therefore: Ratio of cells in test wells to normal wells (% of control cell growth)=(Ti−To)/(PC−To)×100%
Ratio GI50 was concentration of a compound at the point of 50%.
Therefore: Ratio of killed cells to inoculated cells (% of killed cell)=(Ti−To)/(To−NC)×100%
LC50 was concentration point of a compound when half of the starting inoculated concentration was reached.
Concentration of a compound at this point is defined as TGI (total growth inhibition).

The target in another assay is T1, Her2 kinase (Homo sapiens, UniProt P04626).
T1 construct: purchased Cell Signaling Tech #7382
T1 sequence (P04626 676-1255 limits assumed): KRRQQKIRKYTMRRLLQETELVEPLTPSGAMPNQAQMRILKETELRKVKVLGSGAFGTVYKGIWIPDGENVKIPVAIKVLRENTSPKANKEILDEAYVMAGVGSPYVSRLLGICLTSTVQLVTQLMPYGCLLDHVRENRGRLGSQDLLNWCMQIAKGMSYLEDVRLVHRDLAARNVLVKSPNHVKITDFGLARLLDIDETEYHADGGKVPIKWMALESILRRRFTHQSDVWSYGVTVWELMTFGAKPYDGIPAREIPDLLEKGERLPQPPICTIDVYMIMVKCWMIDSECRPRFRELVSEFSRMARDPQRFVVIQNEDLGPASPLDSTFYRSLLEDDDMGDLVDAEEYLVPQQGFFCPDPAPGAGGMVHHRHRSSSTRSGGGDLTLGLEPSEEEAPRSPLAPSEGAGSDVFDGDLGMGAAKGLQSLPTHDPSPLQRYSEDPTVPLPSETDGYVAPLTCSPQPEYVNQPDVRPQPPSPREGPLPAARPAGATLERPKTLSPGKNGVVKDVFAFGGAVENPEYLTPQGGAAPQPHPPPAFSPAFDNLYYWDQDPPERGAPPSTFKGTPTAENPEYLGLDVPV
In words: Inhibition Activity Assay on Her2 Enzyme (ELISA, PGT substrate). Format: biochemical. The following applies: 8 min at 4° C., read-out: Inhibition Activity (EC50) on Her-2. The method, then:
Inhibition Activity Assay on Her2 Enzyme
1. Her2 kinase, Cell Signaling Tech, #7382, Lot. 2, reserved at −80° C.;
2. PBST: PBS+0.05% (v/v) Tween 20;
3. Confining liquid: 3% of BSA in PBS;
4. HEPEs buffer (2×): 50 mM HEPEs, 20 mM MgCl2, 0.1 mM MnCl2, 0.2 mM Na3VO4, adjusted to pH of 7.4 with NaOH;
5. PGT, Sigma, Cat#P0275): 2 mg/ml of stock solution was prepared by dissolving PBS, reserved at −20° C.
6. ATP: […] of stock solution was prepared by dissolving ddH2O, reserved at −20° C.;
7. Mice anti-phosphorylation tyrosine-HRP: Invitrogen-037720, 0.5 mg/ml, reserved at 4° C.;
8. TMB: Cell Signaling Tech, Cat #7004L;
9. DTT: 2.5 M of stock solution was prepared with ddH2O, reserved at −20° C. Before use, 2×HEPEs buffer was added in the solution to the final concentration of 1.25 mM.
1. 2 mg/ml of PGT was diluted with PBS to 0.2 mg/ml. 60 μl of the resulting solution was added in each well. The elisa plate was placed in a refrigerator at 4° C. and coated overnight;
2. The coating solution was discarded to stop the coating. The plate was washed four times with PBS, and then beaten to dryness;
3. The elisa plate was placed in a refrigerator at 4° C., drained out and stood for 3h.
4. […] of aqueous solution of each compound was diluted with ddH2O to a desirable concentration. Then, the solution was added in the corresponding elisa well by 25 μl/well;
5. 2 nM of ATP solution was diluted with ddH2O to 25 folds and then sufficiently mixed. The resulting solution was separately added in each elisa well by 25 μl per well (25 μl ddH2O was added in the negative control);
6. Her2 kinase was diluted with 2×TKB to 800 folds. The resulting solution was added in the elisa well by 50 μl per well. Then, the enzyme reaction began. Moreover, the elisa plate was immediately placed in a micro-oscillator. The reaction is carried out for 8 min at the temperature of 4° C.;
7. 2% of SDS was added in the elisa well to stop the reaction by adding 100 μl of SDS in each well. The solution was sufficiently mixed on the micro-oscillator to sufficiently mix for about 5 min;
8. The reaction solution was sucked out. The plate was washed four times with PBST. After the plate was beaten to dryness, 0.25 μg/ml of mice anti-phosphorylation tyrosine-HRP which was diluted with confining liquid was added in the plate by 100 μl per well, and then reacted for 30 min at the room temperature.
9. The antibody reaction solution was sucked out. The plate was washed six times with PBST. After the plate was beaten to dryness, TMB peroxidase substrate was added in the plate with 100 μl/well, and then reacted in the dark for 15 min at the room temperature;
10. 100 μl of 2N H2SO4 was added in the solution to stop the chromogenic reaction. After the bubbles were cleansed, the solution was measured in elisa at 450 nm.
OD values were converted in relative inhibition ratios according to following formula: Relative inhibition ratio=[1−(experiment values−NC mean values)/(PC mean values−NC mean values)]×100%

Consider nine compounds from US9187458B2, “Cyanoquinoline derivatives” (Tianjin Hemay Bio-Tech Co., LTD., priority 2010, dated 2015).

By GI50 is commonly meant the concentration that inhibits growth by half. Read a high GI50 as lower sensitivity of the cells. Usually EC50 stands for the concentration that produces a half-maximal response. `CN(C)C/C=C/C(=O)Nc1cc2c(Nc3ccc(F)c(Cl)c3)c(C#N)cnc2cc1OC1CCOC1` (stereo not drawn) [Example 4, (E)-N-(4-(3-CHLORO-4-FLUOROPHENYLAMINO)-3-CYANO-7-(TETRAHYDROFURAN-3-YL-OXY)QUINOLIN-6-YL)-4-(DIMETHYLAMINO)-BUT-2-ENAMIDE]: the GI50 with SW620 cells was 3500 nM. Further, on Her2 kinase, the EC50 turned out to be 161 nM.
In the same order, the values of `C#Cc1cccc(Nc2c(C#N)cnc3cc(OC4CCOC4)c(NC(=O)/C=C/CN(C)C)cc23)c1` (stereo not drawn) [Example 5, (E)-N-(3-CYANO-4-(3-ETHYNYLPHENYLAMINO)-7-(TETRAHYDROFURAN-3-YL-OXY)QUINOLIN-6-YL)-4-(DIMETHYLAMINO)-BUT-2-ENAMIDE] are 1680 nM and 96 nM.
In turn, `CN(C)C/C=C/C(=O)Nc1cc2c(Nc3ccc(OCc4cccc(F)c4)c(Cl)c3)c(C#N)cnc2cc1OC1CCOC1` (stereo not drawn) [Example 9, (E)-N-(4-(4-(3-FLUOROBENZYLOXY)-3-CHLOROPHENYLAMINO)-3-CYANO-7-(TETRAHYDROFURAN-3-YL-OXY)QUINOLIN-6-YL)-4-(DIMETHYLAMINO)-BUT-2-ENAMIDE] showed a GI50 with SW620 cells of 2100 nM. Also, at Her2 kinase, the EC50 was determined as 221 nM.
The matching figures for `CN(C)C/C=C/C(=O)Nc1cc2c(Nc3ccc(OCc4ccccn4)c(Cl)c3)c(C#N)cnc2cc1OC1CCOC1` (stereo not drawn) [Example 21, (E)-N-(4-(3-CHLORO-4-(PYRIDIN-2-YL-METHOXY)PHENYLAMINO)-3-CYANO-7-(TETRAHYDROFURAN-3-YL-OXY)QUINOLIN-6-YL)-4-(DIMETHYLAMINO)-BUT-2-ENAMIDE]: 1780 nM and 234 nM.
The matching figures for `CN(C)C/C=C/C(=O)Nc1cc2c(Nc3ccc(OCc4ccccn4)c(Cl)c3)c(C#N)cnc2cc1O[C@H]1CCOC1` [Example 138, (S,E)-N-(4-(3-CHLORO-4-(PYRIDIN-2-YL-METHOXY)PHENYLAMINO)-3-CYANO-7-(TETRAHYDROFURAN-3-YL-OXY)QUINOLIN-6-YL)-4-(DIMETHYLAMINO)-BUT-2-ENAMIDE]: 1780 nM and 244 nM.
Regarding `CN(C)C/C=C/C(=O)Nc1cc2c(Nc3ccc(OCc4ccccn4)c(Cl)c3)c(C#N)cnc2cc1O[C@@H]1CCOC1` [Example 139, (R,E)-N-(4-(3-CHLORO-4-(PYRIDIN-2-YL-METHOXY)PHENYLAMINO)-3-CYANO-7-(TETRAHYDROFURAN-3-YL-OXY)QUINOLIN-6-YL)-4-(DIMETHYLAMINO)-BUT-2-ENAMIDE], it took 1900 nM to inhibit growth with SW620 cells by half (GI50).
Turning to `C#Cc1cccc(Nc2c(C#N)cnc3cc(O[C@H]4CCOC4)c(NC(=O)/C=C/CN(C)C)cc23)c1` [Example 140, (S,E)-N-(3-CYANO-4-(3-ETHYNYLPHENYLAMINO)-7-(TETRAHYDROFURAN-3-YL-OXY)QUINOLIN-6-YL)-4-(DIMETHYLAMINO)-BUT-2-ENAMIDE], it took 2300 nM to inhibit growth with SW620 cells by half (GI50). The concentration giving a half-maximal response (EC50) on Her2 kinase is 110 nM.
For `C#Cc1cccc(Nc2c(C#N)cnc3cc(O[C@@H]4CCOC4)c(NC(=O)/C=C/CN(C)C)cc23)c1` [Example 141, (R,E)-N-(3-CYANO-4-(3-ETHYNYLPHENYLAMINO)-7-(TETRAHYDROFURAN-3-YL-OXY)QUINOLIN-6-YL)-4-(DIMETHYLAMINO)-BUT-2-ENAMIDE], the GI50 in the assay with SW620 cells turned out to be 1400 nM.
On the same count and under the same terms, the same measure for `CN(C)C/C=C/C(=O)Nc1cc2c(Nc3ccc(F)c(Cl)c3)c(C#N)cnc2cc1O[C@H]1CCOC1` [Example 142, (S,E)-N-(4-(3-CHLORO-4-FLUOROPHENYLAMINO)-3-CYANO-7-(TETRAHYDROFURAN-3-YL-OXY)QUINOLIN-6-YL)-4-(DIMETHYLAMINO)-BUT-2-ENAMIDE]: 2300 nM.
